# Experimental data published in ChEMBL document CHEMBL1122862, “Synthesis and antibacterial activity of 2,2'-dithiobis(benzamide) derivatives against Mycobacterium species” (1985).
# What was measured:
# Type in all cases: functional
# [1] = tested on: Mycobacterium tuberculosis; assay: Tested for antibacterial activity against Mycobacterium tuberculosis H37Rv isonicotinic acid hydrazide-resistant strain
# [2] = tested on: Mycobacterium tuberculosis; assay: Tested for antibacterial activity against Mycobacterium tuberculosis H37Rv kanamycin resistant strain
# [3] = tested on: Mycobacterium tuberculosis; assay: Tested for antibacterial activity against Mycobacterium tuberculosis H37Rv streptomycin resistant strain
Compound,MIC [1] [µg/mL],MIC [2] [µg/mL],MIC [3] [µg/mL]
CN[C@@H]1[C@H](O[C@H]2[C@H](O[C@H]3[C@H](O)[C@@H](O)[C@H](N=C(N)N)[C@@H](O)[C@@H]3N=C(N)N)O[C@@H](C)[C@]2(O)C=O)O[C@@H](CO)[C@H](O[C@@H]2O[C@H](CO)[C@@H](O)[C@H](O)[C@@H]2O)[C@H]1O,0.78,3.13,> 100
O=C(O)Cc1ccc(NC(=O)c2ccccc2SSc2ccccc2C(=O)Nc2ccc(CC(=O)O)cc2)cc1,100,100,100
O=C(Nc1ccc(S(=O)(=O)Nc2nc3ccccc3s2)cc1)c1ccccc1SSc1ccccc1C(=O)Nc1ccc(S(=O)(=O)Nc2nc3ccccc3s2)cc1,100,50,100
CCC(O)CNC(=O)c1ccccc1SSc1ccccc1C(=O)NCC(O)CC (centres undefined),12.5,12.5,12.5
CCCCCCCCCCCC(=O)OCCCNC(=O)c1ccccc1SSc1ccccc1C(=O)NCCCOC(=O)CCCCCCCCCCC,0.78,0.78,0.78
CCCC(=O)OCCCNC(=O)c1ccccc1SSc1ccccc1C(=O)NCCCOC(=O)CCC,3.13,6.25,6.25
CO[C@H]1/C=C/O[C@@]2(C)Oc3c(C)c(O)c4c(O)c(c(/C=N/N5CCN(C)CC5)c(O)c4c3C2=O)NC(=O)/C(C)=C\C=C\[C@H](C)[C@H](O)[C@@H](C)[C@@H](O)[C@@H](C)[C@H](OC(C)=O)[C@@H]1C [RIFAMPIN],0.025,0.05,0.025
NNC(=O)c1ccncc1 [ISONIAZID],100,0.05,0.05
O=c1c2ccccc2sn1CO,6.25,12.5,12.5
NC(=O)c1ccccc1SSc1ccccc1C(N)=O,6.25,6.25,6.25
O=C(Nc1cccc2cccnc12)c1ccccc1SSc1ccccc1C(=O)Nc1cccc2cccnc12,12.5,50,50
CCCCCC(=O)OCCCNC(=O)c1ccccc1SSc1ccccc1C(=O)NCCCOC(=O)CCCCC,3.13,3.13,3.13
O=C(c1ccccc1SSc1ccccc1C(=O)N1C(=O)c2ccccc2C1=O)N1C(=O)c2ccccc2C1=O,> 100,> 100,> 100
CN1CCCN(C(=O)c2ccccc2SSc2ccccc2C(=O)N2CCCN(C)CC2)CC1,> 100,> 100,> 100
O=C(Nc1ccc(Cl)c2ccccc12)c1ccccc1SSc1ccccc1C(=O)Nc1ccc(Cl)c2ccccc12,12.5,12.5,12.5
CCCCc1ccc(NC(=O)c2ccccc2SSc2ccccc2C(=O)Nc2ccc(CCCC)cc2)cc1,0.78,1.56,1.56
O=C(NCc1cccc2ccccc12)c1ccccc1SSc1ccccc1C(=O)NCc1cccc2ccccc12,> 100,> 100,> 100
O=C1c2ccccc2S(=O)(=O)N1CO,> 100,> 100,100
O=C(Nc1ccc2ccccc2c1)c1ccccc1SSc1ccccc1C(=O)Nc1ccc2ccccc2c1,1.56,1.56,1.56
O=C(Nc1c([N+](=O)[O-])ccc2ccccc12)c1ccccc1SSc1ccccc1C(=O)Nc1c([N+](=O)[O-])ccc2ccccc12,50,50,50
O=C(Nc1cccc(C(F)(F)F)c1)c1ccccc1SSc1ccccc1C(=O)Nc1cccc(C(F)(F)F)c1,3.13,6.25,3.13
CCn1c2ccccc2c2cc(NC(=O)c3ccccc3SSc3ccccc3C(=O)Nc3ccc4c(c3)c3ccccc3n4CC)ccc21,1.56,3.13,1.56
CC(C)(CO)NC(=O)c1ccccc1SSc1ccccc1C(=O)NC(C)(C)CO,6.25,12.5,12.5
O=C(Nc1ccc(Br)c2ccccc12)c1ccccc1SSc1ccccc1C(=O)Nc1ccc(Br)c2ccccc12,12.5,12.5,12.5

Compound,MIC [1] [µg/mL],MIC [2] [µg/mL],MIC [3] [µg/mL]
CC(=O)OCCCNC(=O)c1ccccc1SSc1ccccc1C(=O)NCCCOC(C)=O,6.25,12.5,12.5
CCC(CO)NC(=O)c1ccccc1SSc1ccccc1C(=O)NC(CC)CO (centres undefined),12.5,12.5,12.5
NC[C@H]1O[C@H](O[C@H]2[C@H](O)[C@@H](O[C@H]3O[C@H](CO)[C@@H](O)[C@H](N)[C@H]3O)[C@H](N)C[C@@H]2N)[C@H](O)[C@@H](O)[C@@H]1O [KANAMYCIN],6.25,> 100,6.25
CCCCCCCCCCNC(=O)c1ccccc1SSc1ccccc1C(=O)NCCCCCCCCCC,3.13,6.25,3.13
O=C(NCC(O)c1ccc(O)c(O)c1)c1ccccc1SSc1ccccc1C(=O)NCC(O)c1ccc(O)c(O)c1 (centres undefined),100,100,> 100
CCCCCCC(=O)OCCCNC(=O)c1ccccc1SSc1ccccc1C(=O)NCCCOC(=O)CCCCCC,1.56,1.56,1.56
CC(O)CNC(=O)c1ccc(SSc2ccc(C(=O)NCC(C)O)cc2)cc1 (centres undefined),> 100,> 100,> 100
CCOc1ccc2nc(NC(=O)c3ccccc3SSc3ccccc3C(=O)Nc3nc4ccc(OCC)cc4s3)sc2c1,> 100,> 100,> 100
CCOC(=O)CNC(=O)c1ccccc1SSc1ccccc1C(=O)NCC(=O)OCC,12.5,25,12.5
O=C(Nc1cccc2ccc(O)cc12)c1ccccc1SSc1ccccc1C(=O)Nc1cccc2ccc(O)cc12,12.5,50,50
CC[C@@H](CO)NCCN[C@@H](CC)CO [ETHAMBUTOL],0.78,1.56,0.78
CCCCC(CC)CNC(=O)c1ccccc1SSc1ccccc1C(=O)NCC(CC)CCCC (centres undefined),1.56,1.56,1.56
CC(O)Cn1sc2ccccc2c1=O (centres undefined),12.5,12.5,12.5
CCCCCCCCCCCC(=O)OCCNC(=O)c1ccccc1SSc1ccccc1C(=O)NCCOC(=O)CCCCCCCCCCC,3.13,3.13,3.13
CCc1cc(CC)cc(NC(=O)c2ccccc2SSc2ccccc2C(=O)Nc2cc(CC)cc(CC)c2)c1,> 100,> 100,> 100
CCCCCCCC(=O)OCCCNC(=O)c1ccccc1SSc1ccccc1C(=O)NCCCOC(=O)CCCCCCC,0.39,0.39,0.78
CCCCCCCCCC(=O)OCCCNC(=O)c1ccccc1SSc1ccccc1C(=O)NCCCOC(=O)CCCCCCCCC,0.39,0.39,0.78
O=C(c1ccccc1SSc1ccccc1C(=O)n1nnc2ccccc21)n1nnc2ccccc21,> 100,> 100,> 100
CCCCCCCCCCCCCCCCCCCC(=O)OCCCNC(=O)c1ccccc1SSc1ccccc1C(=O)NCCCOC(=O)CCCCCCCCCCCCCCCCCCC,> 100,> 100,> 100
CCNC(=O)OCCNC(=O)c1ccccc1SSc1ccccc1C(=O)NCCOC(=O)NCC,25,25,25
O=c1c2ccccc2sn1CCO,12.5,12.5,12.5
CCOC(=O)c1ccc(NC(=O)c2ccccc2SSc2ccccc2C(=O)Nc2ccc(C(=O)OCC)cc2)cc1,3.13,6.25,3.13
O=C(Nc1cc2ccccc2cc1O)c1ccccc1SSc1ccccc1C(=O)Nc1cc2ccccc2cc1O,12.5,6.25,12.5
O=C(NCc1ccco1)c1ccccc1SSc1ccccc1C(=O)NCc1ccco1,12.5,12.5,12.5
